Assay [1] relates to TNF-alpha. The assay is described as follows: TNF-alpha ELISA in differentiated THP-1 cells infected with P. aeruginosa DNA. The settings on record: 6 micrograms P. aeruginosa DNA, 24 hours post infection; DNA alone 1,200. Type of assay: cell-based, human. The procedure:
3 sets of differentiated THP-1 cells were infected with 6 micrograms of […], 6 micrograms of P. aeruginosa DNA and composition A from Table 1, above, 6 micrograms of P. aeruginosa DNA and moxifloxacin, or 6 micrograms of P. aeruginosa DNA, moxifloxacin and composition A. 24 hours post infection the cells were assayed for TNF-alpha protein levels via ELISA. Results of this study can be found in FIGS. 3A and 3B.
A general note: An ELISA detects its analyte on a solid surface through an enzyme-linked reagent.

For assay [2], the system named is free DNA. The assay is described as follows: Free DNA binding, ethidium bromide displacement assay. The settings on record: incubated with free DNA in a petri dish. The procedure:
Voriconazole, moxifloxacin, composition A from Table 1, above, a combination of voriconazole and composition A and a combination of moxifloxacin and composition A were each individually incubated with free DNA in a petri dish with and without the addition of voriconazole or moxifloxacin. The percentage of free DNA bound was measured using an ethidium bromide displacement assay. See results in FIG. 1.
Compositions #1-3 from Table 1, above, were each individually incubated with free DNA in a petri dish at concentrations of 1% and 10% in PBS buffer. The percentage of free DNA bound was measured using an ethidium bromide displacement assay.

In assay [3] the test system is TNF-alpha. Nature of the assay: TNF-alpha ELISA in differentiated THP-1 cells infected with A. flavus DNA. It is filed as cell-based, human. Conditions: 6 micrograms A. flavus DNA, 24 hours post infection; DNA alone 180. An excerpt: Tumor Necrosis Factor alpha secretion (“TNF-alpha”) is a marker for DNA-induced inflammation. See, Campbell et al., CpG-containing immunostimulatory DNA sequences elicit TNF-alpha-dependent toxicity in rodents but not in humans, 2009, J Clin Invest, 119(9), 2564-2576. 3 sets of differentiated human leukemia monocytic (“differentiated THP-1”) cells were infected with 6 micrograms of A. flavus DNA, 6 micrograms of A. flavus DNA and composition A, 6 micrograms of A. flavus DNA and voriconazole, or 6 micrograms of A. flavus DNA, voriconazole and composition A. 24 hours post infection the cells were assayed for TNF-alpha protein levels via enzyme-linked immunosorbent assays (“ELISA”). Results of this study can be found in FIGS. 2A and 2B.
6 sets of differentiated THP-1 cells were infected with 1) nothing, 2) lipofectamine™ 2000 transfectin reagent, 3) 6 micrograms of A. flavus DNA, 4) 6 micrograms of A. flavus DNA and composition #1 from Table 1, above, 5) 6 micrograms of A. flavus DNA and composition #2 from Table 1, above, 6) 6 micrograms of A. flavus DNA and composition #3 from Table 1, above. 24 hours post infection the cells were assayed for TNF-alpha protein levels via ELISA.

In assay [1], `COc1c(N2C[C@@H]3CCCN[C@@H]3C2)c(F)cc2c(=O)c(C(=O)O)cn(C3CC3)c12` [moxifloxacin] registered a TNF-alpha protein levels of 450 picograms per milliliter.
For the compound `C[C@@H](c1ncncc1F)[C@](O)(Cn1cncn1)c1ccc(F)cc1F` [voriconazole], in assay [2], the “percentage of free DNA bound” value stood at 0%. For the same compound, in assay [3], the TNF-alpha protein levels was 85 picograms per milliliter.
